{"source": "patent US10945989B2", "about": "“Perinatal treatment with a flavonoid agonist of the TrkB receptor for BDNF rescues neurogenesis and behavior in the Ts65Dn mouse model of DS” (ALMA MATER STUDIORUM—Universita' di Bologna, priority 2017, dated 2021)", "key": {"TrkB receptor": {"target": "TrkB receptor (Homo sapiens, UniProt Q16620)", "sequence (Q16620 32-822)": "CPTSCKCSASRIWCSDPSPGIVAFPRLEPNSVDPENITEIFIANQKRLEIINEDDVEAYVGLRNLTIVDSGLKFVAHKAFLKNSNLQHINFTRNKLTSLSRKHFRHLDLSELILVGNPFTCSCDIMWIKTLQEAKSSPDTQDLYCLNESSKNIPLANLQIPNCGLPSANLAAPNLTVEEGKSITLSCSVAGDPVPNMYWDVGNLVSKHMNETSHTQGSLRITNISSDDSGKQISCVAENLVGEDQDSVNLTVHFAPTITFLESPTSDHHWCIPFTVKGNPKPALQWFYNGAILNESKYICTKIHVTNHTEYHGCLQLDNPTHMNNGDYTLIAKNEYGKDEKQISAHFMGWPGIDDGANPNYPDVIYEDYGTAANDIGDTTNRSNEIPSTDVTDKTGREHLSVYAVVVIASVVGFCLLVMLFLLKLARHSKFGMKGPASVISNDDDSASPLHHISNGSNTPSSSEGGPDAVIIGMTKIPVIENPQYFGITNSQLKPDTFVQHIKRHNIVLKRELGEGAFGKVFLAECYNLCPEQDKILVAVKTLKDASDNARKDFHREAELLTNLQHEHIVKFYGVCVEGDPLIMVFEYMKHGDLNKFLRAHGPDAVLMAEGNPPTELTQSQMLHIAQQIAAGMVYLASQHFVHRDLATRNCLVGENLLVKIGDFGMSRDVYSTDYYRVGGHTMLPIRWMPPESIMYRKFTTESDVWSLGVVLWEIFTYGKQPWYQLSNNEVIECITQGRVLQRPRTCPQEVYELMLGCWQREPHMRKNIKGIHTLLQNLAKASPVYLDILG", "conditions": "Liu et al., 2010 and 2013; cited from earlier work"}, "cultures of NPCs": {"test_system": "cultures of NPCs", "assay": "Apoptotic cells in NPC cultures", "assay_type": "cell-based, mouse", "conditions": "data not shown"}, "BDNF": {"test_system": "BDNF", "assay": "Western blot of hippocampal homogenates: BDNF", "assay_type": "in vivo, mouse", "protocol": "Euploid and Ts65Dn mice received a daily subcutaneous injection (at 9-10 am) of 7,8-DHF (5.0 mg/kg in vehicle: PBS with 1% DMSO) or vehicle from postnatal day 3 (P3) to postnatal day 15. This timing was chosen because it corresponds to that previously used to test the effects of fluoxetine and other pharmacotherapies in the neonate Ts65Dn mouse (Bianchi et al., 2010b; Giacomini et al., 2015; Stagni et al., 2016). Mice that received 7,8-DHF will be called “treated mice” (treated euploid mice: n=25; treated Ts65Dn mice: n=15). Mice that received the vehicle will be called “untreated mice” (untreated euploid mice: n=35; untreated Ts65Dn mice: n=21). […] The brains were excised and cut along the midline. The left hemisphere of a group of mice was fixed by immersion in PFA 4% and frozen, and the left hemisphere of another group of mice was used for Golgi staining. […]\nIn homogenates of the hippocampal formation of P15 mice, total proteins were obtained as previously described (Trazzi et al., 2011) and the levels of the following proteins were evaluated: BDNF, TrkB full length (TrkB-FL), phosphorylated TrkB (p-TrkB), the truncated form 1 of the TrkB receptor (TrkB-T1), phosphorylated ERK1 (p-ERK1), phosphorylated ERK2 (p-ERK2), ERK1, ERK2, synaptophysin (SYN), GAPDH and α-Tubulin using the antibodies reported in Table 1. […]"}, "[1]": {"test_system": "TrkB receptor (TrkB-FL, p-TrkB-FL, TrkB-T1)", "assay": "Western blot of hippocampal homogenates: TrkB receptors", "assay_type": "in vivo, mouse", "protocol": "Euploid and Ts65Dn mice received a daily subcutaneous injection (at 9-10 am) of 7,8-DHF (5.0 mg/kg in vehicle: PBS with 1% DMSO) or vehicle from postnatal day 3 (P3) to postnatal day 15. This timing was chosen because it corresponds to that previously used to test the effects of fluoxetine and other pharmacotherapies in the neonate Ts65Dn mouse (Bianchi et al., 2010b; Giacomini et al., 2015; Stagni et al., 2016). Mice that received 7,8-DHF will be called “treated mice” (treated euploid mice: n=25; treated Ts65Dn mice: n=15). Mice that received the vehicle will be called “untreated mice” (untreated euploid mice: n=35; untreated Ts65Dn mice: n=21). […] The brains were excised and cut along the midline. The left hemisphere of a group of mice was fixed by immersion in PFA 4% and frozen, and the left hemisphere of another group of mice was used for Golgi staining. The right hemispheres of all mice was kept at −80° C. and used for western blotting.\nIn homogenates of the hippocampal formation of P15 mice, total proteins were obtained as previously described (Trazzi et al., 2011) and the levels of the following proteins were evaluated: BDNF, TrkB full length (TrkB-FL), phosphorylated TrkB (p-TrkB), the truncated form 1 of the TrkB receptor (TrkB-T1), phosphorylated ERK1 (p-ERK1), phosphorylated ERK2 (p-ERK2), ERK1, ERK2, synaptophysin (SYN), GAPDH and α-Tubulin using the antibodies reported in Table 1. Densitometric analysis of digitized images with ChemiDoc XRS+ was performed with Image Lab software (Bio-Rad Laboratories, Hercules, Calif., USA) and intensity for each band was normalized to the intensity of the corresponding GAPDH or α-Tubulin band."}}, "data": [{"smiles": "O=c1cc(-c2ccccc2)oc2c(O)c(O)ccc12", "note": "[7,8-DHF, 7,8-dihydroxyflavone]", "values": [{"measurement": "binding to the TrkB receptor", "setting": "TrkB receptor", "result": "high affinity and specificity"}, {"measurement": "number of apoptotic cells", "setting": "cultures of NPCs", "result": "no effect of treatment"}, {"measurement": "BDNF levels in the hippocampus", "setting": "BDNF; P15 Ts65Dn mice, statistically significant", "result": "reduction in BDNF levels"}, {"measurement": "BDNF levels in the hippocampus", "setting": "BDNF; P15 euploid mice, not statistically significant", "result": "reduction in BDNF levels"}, {"measurement": "levels of p-TrkB-FL", "setting": "[1]; P15, both genotypes (euploid and Ts65Dn)", "result": "increase in the levels of p-TrkB-FL"}, {"measurement": "levels of TrkB-FL", "setting": "[1]; P15 Ts65Dn mice", "result": "reduction in the levels of TrkB-FL"}, {"measurement": "levels of TrkB-T1", "setting": "[1]; P15 Ts65Dn mice, vs untreated counterparts and untreated euploid mice", "result": "reduction in the levels of TrkB-T1"}]}]}
